Measurements taken from patent US20030032824A1, “Meiosis regulating compounds” (priority 1996, published 2003).

Columns and labels:
naked oocytes (NO) [1] = assay: Oocyte test, inhibition of FF-MAS induced meiosis in naked oocytes (NO); type: cell-based, mice
Experimental: (§1) The ovaries were dissected out and the oocytes were isolated in Hx-medium (see below) under a stereo microscope by manual rupture of the follicles using a pair of 27 gauge needles. Spherical oocytes displaying an intact germinal vesicle (GV) were divided in cumulus enclosed oocytes (CEO) and naked oocytes (NO) and placed in α-minimum essential medium (α-MEM without ribonucleosides, Gibco BRL, Cat. No. 22561) supplemented with 3 mM hypoxanthine (Sigma Cat. No. H-9377), 8 mg/ml Human Serum Albumin (HSA, State Serum Institute, Denmark), 0.23 mM pyruvate (Sigma, Cat. No S-8636), 2 mM glutamine (Flow Cat. No. 16-801), 100 IU/mi penicillin and 100 μg/ml streptomycin (Flow, Cat No. 16-700). This medium was designated Hx-medium.
(§2) The cultures were performed at 37° C. and 100% humidity with 5% CO2 in air. The culture time was 22-24 hours.
(§3) By the end of the culture period, the number of oocytes with germinal vesicle (GV) or germinal vesicle breakdown (GVB) and those with polar body (PB) was counted using a stereo microscope or an inverted microscope with differential interference contrast equipment. The percentage of oocytes with GVB per total number of oocytes and the percentage of oocytes with PB per total number of oocytes was calculated in the test cultures and compared to the control culture.
(§4) Germinal vesicle (GV) oocytes were obtained from immature FSH treated female mice using the same methods as described in Example 1 (see above). The oocytes were rinsed three times in Hx-medium and oocytes of uniform size were divided into groups of CEO and NO. […] CEO and NO were cultured in Hx-medium supplemented with 0.7-7.0 μM FF-MAS in co-culture with the test compounds in different concentrations in 4-well multidishes (Nunclon, Denmark) in which each well contained 0.4 ml of Hx-medium and 35-45 oocytes. One control (i.e., 35-45 oocytes cultured in Hx-medium containing FF-MAS with no addition of test compound) was always run simultaneously with the test cultures, which were supplemented with different concentrations of the compounds to be tested.

[2] = system: cumulus enclosed oocytes (CEO); assay: Oocyte test, inhibition of FF-MAS induced meiosis in cumulus enclosed oocytes (CEO); type: cell-based, mice
Experimental: as §1, §2, §3, §4

CEO and NO = CEO and NO in vitro, previously shown; cited from earlier work
naked oocytes (NO) [3] = assay: Oocyte test, activation of meiosis in naked oocytes (NO) cultured in Hx-medium; type: cell-based, mice
Experimental: (§5) Oocytes were obtained from immature female mice (C57BI/6J×DBA/2J F1-hybrids, Bomholtgaard, Denmark) weighing 13-16 grams, that were kept under controlled lighting and temperature. The mice received an intra-peritoneal injection of 0.2 ml gonadotropins (Gonal-F, Serono, Solna, Sweden, containing 20 IU FSH, alternatively, Puregon, Organon, Swords, Ireland containing 20 IU FSH) and 48 hours later the animals were killed by cervical dislocation.
as §1
(§6) The oocytes were rinsed three times in Hx-medium and oocytes of uniform size were divided into groups of CEO and NO. CEO and NO were cultured in 4-well multidishes (Nunclon, Denmark) in which each well contained 0.4 ml of Hx-medium and 35-45 oocytes. […]
as §3

[4] = system: cumulus enclosed oocytes (CEO); assay: Oocyte test, activation of meiosis in cumulus enclosed oocytes (CEO) cultured in Hx-medium; type: cell-based, mice
Experimental: as §5, §1, §6, §3

[5] = FF-MAS 0.7 μM + 22R 13 μM (ratio 1:19)
[6] = FF-MAS 0.7 μM + 22R 25 μM (ratio 1:36)
[7] = FF-MAS 1.2 μM + 22R 25 μM (ratio 1:20)
[8] = FF-MAS 7 μM + 22R 12.5 μM (ratio 1:2)
[9] = FF-MAS 0.7 μM alone (control, no 22R)
[10] = FF-MAS 1.2 μM alone (control, no 22R)
[11] = FF-MAS 7 μM alone (control, no 22R)
[12] = NO, test concentration 7.0 μM, culture 22-24 hours
[13] = CEO, test concentration 7.0 μM, culture 22-24 hours

CC(C)CC[C@@H](O)[C@@H](C)[C@H]1CC[C@H]2[C@@H]3CC=C4C[C@@H](O)CC[C@]4(C)[C@H]3CC[C@]12C [Example 22R, cholest-5-en-3β,(22R)-diol]
% GVB (naked oocytes (NO) [1]; [5]): 16.9%
% PB (naked oocytes (NO) [1]; [5]): 0%
% GVB (naked oocytes (NO) [1]; [6]): 2.9%
% PB (naked oocytes (NO) [1]; [6]): 0%
% GVB (naked oocytes (NO) [1]; [7]): 4.6%
% PB (naked oocytes (NO) [1]; [7]): 0%
antagonism of FF-MAS induced resumption of meiosis (naked oocytes (NO) [1]; co-culture with FF-MAS): antagonises the FF-MAS induced resumption of meiosis in a dose-related manner
% GVB [2, 6]: 6.9%
% PB [2, 6]: 3.4%
% GVB [2, 8]: 21%
% PB [2, 8]: 3.5%
antagonism of FF-MAS induced resumption of meiosis ([2]; co-culture with FF-MAS): antagonises the FF-MAS induced resumption of meiosis in a dose-related manner

CC(C)=CCC[C@@H](C)[C@H]1CC=C2C3=C(CC[C@@]21C)[C@@]1(C)CC[C@H](O)C(C)(C)C1CC3 (stereo partly drawn) [FF-MAS, 4,4-Dimethylcholest-8,14,24-trien-3β-ol, reference compound]
% GVB (naked oocytes (NO) [1]; [9]): 33.0%
% PB (naked oocytes (NO) [1]; [9]): 7.8%
% GVB (naked oocytes (NO) [1]; [10]): 19.5%
% PB (naked oocytes (NO) [1]; [10]): 9.5%
% GVB [2, 9]: 21.7%
% PB [2, 9]: 10.8%
% GVB [2, 11]: 39.0%
% PB [2, 11]: 18.9%
induction of meiosis (CEO and NO): induce meiosis in CEO and NO in vitro

CC(C)CCC[C@@H](C)[C@H]1CC[C@H]2[C@@H]3CC=C4[C@@H](O)[C@@H](O)CC[C@]4(C)[C@H]3CC[C@]12C [cholest-5-en-3β,4β-diol]
% GVB (naked oocytes (NO) [3]; [12]): 50.2%
% PB (naked oocytes (NO) [3]; [12]): 17.2%
induction of meiosis (naked oocytes (NO) [3]; naked oocyte cultured in vitro): induces meiosis
% GVB [4, 13]: 44.4%
% PB [4, 13]: 25.9%
induction of meiosis ([4]; cumulus enclosed oocyte cultured in vitro): induces meiosis
